In test [1] the target is T1, yeast NADPH-cytochrome P450 reductase (yCPR) (Saccharomyces cerevisiae, UniProt P16603).
T1 sequence (P16603 34-691): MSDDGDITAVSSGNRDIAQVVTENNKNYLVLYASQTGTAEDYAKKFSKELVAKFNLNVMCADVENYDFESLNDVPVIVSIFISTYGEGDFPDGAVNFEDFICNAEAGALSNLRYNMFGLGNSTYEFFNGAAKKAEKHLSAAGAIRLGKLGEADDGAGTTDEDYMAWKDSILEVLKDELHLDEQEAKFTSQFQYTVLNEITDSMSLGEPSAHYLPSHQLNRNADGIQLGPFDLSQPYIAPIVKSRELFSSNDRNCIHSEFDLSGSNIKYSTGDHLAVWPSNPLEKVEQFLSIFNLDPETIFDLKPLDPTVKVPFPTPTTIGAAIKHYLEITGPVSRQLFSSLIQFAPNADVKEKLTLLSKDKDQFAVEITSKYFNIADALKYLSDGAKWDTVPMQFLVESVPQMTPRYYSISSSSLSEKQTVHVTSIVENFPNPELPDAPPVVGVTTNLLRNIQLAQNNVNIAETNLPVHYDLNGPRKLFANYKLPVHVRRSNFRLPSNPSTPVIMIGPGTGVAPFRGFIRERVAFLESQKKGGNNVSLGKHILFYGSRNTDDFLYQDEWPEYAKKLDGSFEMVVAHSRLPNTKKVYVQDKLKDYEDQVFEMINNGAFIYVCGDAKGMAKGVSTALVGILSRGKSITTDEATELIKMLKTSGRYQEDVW
Briefly: SPR. It counts as binding.

The target in test [2] is T1, yeast NADPH-cytochrome P450 reductase (yCPR). Briefly: SPR. Type of test: binding. This is another data set of the same source.

Here are results for two compounds from publication PMC2924936 (ACS chemical biology, 2010).

Where two headings read alike, the source gives them in different places.

As to `Cc1cc2nc3c(=O)[nH]c(=O)nc-3n(C[C@H](O)[C@H](O)[C@H](O)COP(=O)(O)OP(=O)(O)OC[C@H]3O[C@@H](n4cnc5c(N)ncnc54)[C@H](O)[C@@H]3O)c2cc1C` [compound 8, FAD], in test [1], binding was put at a Kd of 2300 nM. `Cc1cc2nc3c(=O)[nH]c(=O)nc-3n(C[C@H](O)[C@H](O)[C@H](O)COP(=O)(O)O)c2cc1C` [compound 7, FMN] yielded a Kd in test [2] of 300 nM.

By Kd is commonly meant the concentration at which binding is half-saturated. Read a low Kd as tighter binding.
